# Key:
# [1] = target: Human immunodeficiency virus type 1 reverse transcriptase (Human immunodeficiency virus 1, UniProt Q72547); assay: Inhibition of HIV-1 reverse transcriptase assessed as reduction in biotin-dUTP incorporation incubated for 2 hrs in presence of template and viral nucleotides by ELISA
# [2] = target: Human immunodeficiency virus type 1 reverse transcriptase (Human immunodeficiency virus 1) (UniProt Q72547); assay: Inhibition of HIV-1 reverse transcriptase incubated for 2 hrs in presence of template and viral nucleotides by ELISA relative to control; parameters: concentration or dose not given beside the values; conditions: concentration not given here
# [3] = test system: Human immunodeficiency virus 1; assay: Antiviral activity against HIV1 IIIB infected in MT4 cells assessed as reduction in virus induced cytopathic effect incubated for 5 days by MTT method; format: functional, organism-based; conditions: Human immunodeficiency virus 1, IIIB, MT4, 120 h
# [4] = Cytotoxicity against human MT4 cells assessed as reduction in cell viability incubated for 5 days by MTT method; format: toxicity, cell-based; conditions: time 5 day
# [5] = Selectivity index, ratio of CC50 for human MT4 cells to EC50 for antiviral activity against HIV1 IIIB infected in MT4 cells; format: toxicity, cell-based; conditions: read-out: Ratio CC50/EC50
# [6] = test system: Human immunodeficiency virus 1; assay: Antiviral activity against HIV1 IIIB harboring L100I mutant infected in MT4 cells assessed as reduction in virus induced cytopathic effect incubated for 5 days by MTT method; format: functional, organism-based; conditions: Human immunodeficiency virus 1, IIIB, MT4, 120 h
# [7] = test system: Human immunodeficiency virus 1; assay: Antiviral activity against HIV1 IIIB harboring K103 N mutant infected in MT4 cells assessed as reduction in virus induced cytopathic effect incubated for 5 days by MTT method; format: functional, organism-based; conditions: Human immunodeficiency virus 1, IIIB, MT4, 120 h
# [8] = test system: Human immunodeficiency virus 1; assay: Antiviral activity against HIV1 IIIB harboring Y181C mutant infected in MT4 cells assessed as reduction in virus induced cytopathic effect incubated for 5 days by MTT method; format: functional, organism-based; conditions: Human immunodeficiency virus 1, IIIB, MT4, 120 h
# [9] = test system: Human immunodeficiency virus 1; assay: Antiviral activity against HIV1 IIIB harboring Y188L mutant infected in MT4 cells assessed as reduction in virus induced cytopathic effect incubated for 5 days by MTT method; format: functional, organism-based; conditions: Human immunodeficiency virus 1, IIIB, MT4, 120 h
# [10] = test system: Human immunodeficiency virus 1; assay: Antiviral activity against HIV1 IIIB harboring E138K mutant infected in MT4 cells assessed as reduction in virus induced cytopathic effect incubated for 5 days by MTT method; format: functional, organism-based; conditions: Human immunodeficiency virus 1, IIIB, MT4, 120 h
# [11] = test system: Human immunodeficiency virus 1; assay: Antiviral activity against HIV1 IIIB harboring F227L/V106A double mutant infected in MT4 cells assessed as reduction in virus induced cytopathic effect incubated for 5 days by MTT method; format: functional, organism-based; conditions: Human immunodeficiency virus 1, IIIB, MT4, 120 h
# [12] = test system: Human immunodeficiency virus 1; assay: Antiviral activity against HIV1 IIIB harboring RES056 mutant infected in MT4 cells assessed as reduction in virus induced cytopathic effect incubated for 5 days by MTT method; format: functional, organism-based; conditions: Human immunodeficiency virus 1, IIIB, MT4, 120 h
# [13] = Aqueous solubility of compound at pH 7.4 incubated for 24 hrs under shaking condition by HPLC method; format: physicochemical; conditions: buffer
# [14] = Aqueous solubility of compound at pH 7 incubated for 24 hrs under shaking condition by HPLC method; format: physicochemical; conditions: buffer
# [15] = Aqueous solubility of compound at pH 2 incubated for 24 hrs under shaking condition by HPLC method; format: physicochemical; conditions: buffer
# [16] = test system: Human immunodeficiency virus 1; assay: Antiviral activity against HIV1 IIIB harboring Y188L mutant infected in MT4 cells assessed as fold increase in reduction of virus induced cytopathic effect incubated for 5 days by MTT method relative to A6N36; format: functional; conditions: time 5 day
# [17] = Aqueous solubility of compound at pH 7.4; conditions: buffer
# [18] = Aqueous solubility of compound at pH 7; conditions: buffer
# [19] = test system: Human immunodeficiency virus 1; assay: Antiviral activity against HIV1 IIIB harboring F227L/V106A double mutant infected in MT4 cells assessed as fold increase in reduction of virus induced cytopathic effect incubated for 5 days by MTT method relative to A6N36; format: functional; conditions: time 5 day
# [20] = test system: Human immunodeficiency virus 1; assay: Antiviral activity against HIV1 IIIB harboring RES056 mutant infected in MT4 cells assessed as fold increase in reduction of virus induced cytopathic effect incubated for 5 days by MTT method relative to A6N36; format: functional; conditions: time 5 day
SMILES,IC50 [1],inhibition [2],EC50 [3],CC50 at 120 h [4],selectivity ratio [5],EC50 [6],EC50 [7],EC50 [8],EC50 [9],EC50 [10],EC50 [11],EC50 [12],solubility thermodynamic at 24 h [13],solubility thermodynamic at 24 h [14],solubility thermodynamic at 24 h [15],fold change (FC) [16],solubility [17],solubility [18],fold change (FC) [19],fold change (FC) [20]
COC(=O)Cn1cc(CN2CCC(Nc3nccc(Oc4c(C)cc(/C=C/C#N)cc4C)n3)CC2)nn1,0.052 µM,91.7%,0.036 µM,26.2 µM,732,,,,,,,,,,,,,,,
Cc1cc(/C=C/C#N)cc(C)c1Oc1nc(NC2CCN(Cc3cn(CC(N)=O)nn3)CC2)nc2sccc12,0.118 µM,,0.004 µM,62.5 µM,14500,0.006 µM,0.005 µM,0.017 µM,0.039 µM,0.014 µM,0.051 µM,0.089 µM,20.1 µg/mL,22.5 µg/mL,228 µg/mL,3,,,,
Cc1cc(/C=C/C#N)cc(C)c1Nc1ccnc(Nc2ccc(C#N)cc2)n1 [RILPIVIRINE],,,,,,,,,,,,,,,,,< 1 µg/mL,< 1 µg/mL,,
Cc1cc(/C=C/C#N)cc(C)c1Oc1nc(NC2CCN(Cc3cn(CC(=O)NC4CC4)nn3)CC2)nc2sccc12,0.214 µM,,0.005 µM,16.9 µM,3520,0.006 µM,,0.016 µM,0.038 µM,0.022 µM,0.156 µM,0.084 µM,,,,3,,,,
COC(=O)CCCn1cc(CN2CCC(Nc3nccc(Oc4c(C)cc(C#N)cc4C)n3)CC2)nn1,0.056 µM,90.7%,0.01 µM,21.3 µM,2060,,,,,,,,,,,,,,,
Cc1cc(/C=C/C#N)cc(C)c1Oc1ccnc(NC2CCN(Cc3cn(CC(=O)NC4CC4)nn3)CC2)n1,0.04 µM,92.4%,0.002 µM,20.9 µM,14000,0.009 µM,,0.007 µM,0.091 µM,0.007 µM,0.066 µM,0.085 µM,85 µg/mL,198 µg/mL,3190 µg/mL,,,,,
COC(=O)CCCn1cc(CN2CCC(Nc3nccc(Oc4c(C)cc(/C=C/C#N)cc4C)n3)CC2)nn1,0.073 µM,90.7%,0.006 µM,16.1 µM,2680,0.028 µM,0.008 µM,0.028 µM,1.09 µM,0.036 µM,0.83 µM,2.36 µM,,,,,,,,
Cc1cc(/C=C/C#N)cc(C)c1Oc1ccnc(NC2CCN(Cc3cn(Cc4ccc(B(O)O)cc4)nn3)CC2)n1,0.096 µM,92.2%,0.006 µM,4.62 µM,825,0.009 µM,0.004 µM,0.011 µM,0.078 µM,0.019 µM,0.099 µM,0.133 µM,,,,,,,,
Cc1cc(C#N)cc(C)c1Oc1ccnc(NC2CCN(Cc3cn(CC(=O)NC4CC4)nn3)CC2)n1,0.062 µM,93.4%,0.003 µM,31.3 µM,12500,0.15 µM,0.019 µM,0.03 µM,0.399 µM,0.028 µM,3.27 µM,2.63 µM,,,,,,,,
CNC(=O)Cn1cc(CN2CCC(Nc3nc(Oc4c(C)cc(/C=C/C#N)cc4C)c4ccsc4n3)CC2)nn1,0.134 µM,,0.005 µM,18.7 µM,3990,0.004 µM,0.003 µM,0.008 µM,0.03 µM,0.009 µM,0.028 µM,0.058 µM,20.1 µg/mL,23.6 µg/mL,733 µg/mL,3,,,2,2
CCOC(=O)Cn1cc(CN2CCC(Nc3nccc(Oc4c(C)cc(/C=C/C#N)cc4C)n3)CC2)nn1,0.054 µM,90.9%,0.011 µM,18.8 µM,1740,,,,,,,,,,,,,,,
Cc1cc(C#N)cc(C)c1Oc1ccnc(NC2CCN(Cc3cn(Cc4ccc(C(N)=O)cc4)nn3)CC2)n1,0.055 µM,94.1%,0.002 µM,7.69 µM,,0.05 µM,0.007 µM,0.011 µM,0.097 µM,0.014 µM,1.04 µM,> 7.69 µM,,,,,,,,
Cc1cc(/C=C/C#N)cc(C)c1Oc1nc(NC2CCN(Cc3cn(CC(=O)NC4CCOCC4)nn3)CC2)nc2sccc12,0.22 µM,,0.003 µM,16 µM,4980,0.005 µM,0.005 µM,0.015 µM,0.029 µM,0.018 µM,0.047 µM,0.062 µM,23.1 µg/mL,22.5 µg/mL,1610 µg/mL,3,,,,
CCNC(=O)Cn1cc(CN2CCC(Nc3nc(Oc4c(C)cc(/C=C/C#N)cc4C)c4ccsc4n3)CC2)nn1,0.21 µM,,0.004 µM,19.1 µM,5010,0.007 µM,,0.012 µM,0.029 µM,0.017 µM,0.036 µM,0.055 µM,22.6 µg/mL,25.1 µg/mL,659 µg/mL,3,,,,
Cc1cc(/C=C/C#N)cc(C)c1Oc1ccnc(NC2CCN(Cc3cn(CC(=O)N4CCOCC4)nn3)CC2)n1,0.059 µM,89.4%,0.002 µM,30.5 µM,13300,0.061 µM,0.003 µM,0.017 µM,1.26 µM,0.01 µM,0.664 µM,1.17 µM,,,,,,,,

# Source: ChEMBL document CHEMBL5614409, “Discovery of potent HIV-1 NNRTIs by CuAAC click-chemistry-based miniaturized synthesis, rapid screening and structure optimization” (Eur J Med Chem, 2024)
